Patent US20150258059A1, “ANTIMICROBIAL AND RADIOPROTECTIVE COMPOUNDS” (BioDiem, Ltd, priority 2001, published 2015)
Converted amounts (≈) assume the structure as drawn. Like-named read-outs stand apart in the source and are kept apart here. Marks after values point to notes of the source that are not given here.

Experiments:
[1] = tested on: Aspergillus fumigatus; assay: NCCLS broth macro-dilution MIC/MFC (RPMI); assay type: cell-based; conditions: Table 10, 7 day, 30° C.
[2] = tested on: Staphylococci epidermidis B-513; assay: Agar diffusion assay
[3] = tested on: Candida albicans; assay: Impregnated agar serial double dilutions; conditions: meat peptone agar
[4] = tested on: Escherichia coli B-683; assay: Sensitivity of strains: suppression of growth; assay type: cell-based; conditions: Compound (1) 1.0%; antibiotics disc method
[5] = tested on: S. pyogenes; assay: Broth dilution bioassay, low inoculum; assay type: cell-based; conditions: in MHB
[6] = tested on: Rhodotorula rubra; assay: microbe, parasite or virus in culture; assay type: cell-based; conditions: for MIC: Rhodotorula
[7] = tested on: Corynebacterium B-670; assay: Agar diffusion assay; assay type: cell-based
[8] = tested on: Shigella flexneri M-2A6907; assay: Sensitivity of strains: suppression of growth; assay type: cell-based; conditions: Compound (1) 1.0%; antibiotics disc method
[9] = tested on: Candida albicans; assay: Rate of kill, viable counts
[10] = tested on: Citrobacter diversus B-678; assay: Sensitivity of strains: suppression of growth; assay type: cell-based; conditions: Compound (1) 1.0%; antibiotics disc method
[11] = tested on: Salmonella intraperitoneally; assay: Anti-bacterial activity in vivo, infected mice; conditions: schedule −1, 0, +1, +2, +3; 200 mg/kg intrmuscularly
[12] = tested on: skin wounds infected by Streptococcus and Staphylococcus; assay: Treatment of infected wounds, human volunteers; assay type: in vivo; conditions: 0.1% ointment for 3 days
Method: Human volunteers suffering from skin wounds infected by Streptococcus and Staphylococcus were treated with 0.1% Compounds (1) and (2) in an ointment base of vaseline, sheep fat, and sulfoxide.

[13] = tested on: C. laniolis 54/6; assay: MIC/MMC against clinical strains of Campylobacter spp.; conditions: Table 18; clinical strain isolated from humans
[14] = tested on: C. jejuni 541-3; assay: as above; conditions: Table 18; clinical strain isolated from humans
[15] = tested on: S. aureus; assay: Antibacterial activity in the presence of blood, macrodilution; assay type: cell-based
[16] = tested on: Neisseria meningitidis M-A72; assay: Sensitivity of strains: suppression of growth; assay type: cell-based; conditions: Compound (1) 1.0%; antibiotics disc method
[17] = tested on: Candida albicans; assay: microbe, parasite or virus in culture; assay type: cell-based; conditions: for MIC: Candida albicans
[18] = tested on: β-hemolytic streptococcus B-624; assay: Sensitivity of strains: suppression of growth; assay type: cell-based; conditions: Compound (1) 1.0%; antibiotics disc method
[19] = tested on: Mycobact tub. H.37RV; assay: Anti-TB effect, serial double dilution in liquid medium; assay type: cell-based, M tuberculosis; conditions: read-out: Minimal Inhibitory Concentration
[20] = tested on: Staphylococcus aureus M-209; assay: Sensitivity of strains: suppression of growth; assay type: cell-based; conditions: Compound (1) 1.0%; antibiotics disc method
[21] = tested on: Salmonella typhimurium M-727; assay: Agar diffusion assay
[22] = tested on: six bacterial test cultures; assay type: cell-based
[23] = tested on: clinical isolate of Trichomonas vaginalis; assay: microbe, parasite or virus in culture; assay type: cell-based
[24] = tested on: Staphylococcus aureus strain 674; assay: Impregnated agar serial double dilutions; conditions: meat peptone agar
[25] = tested on: Enterobacter aerogenes B-687; assay: Sensitivity of strains: suppression of growth; assay type: cell-based; conditions: Compound (1) 1.0%; antibiotics disc method
[26] = tested on: Streptococcus pneumonia ATCC49619; assay: NCCLS broth microdilution MIC/MBC; assay type: cell-based; conditions: Table 9, 35° C., 24 hours
[27] = tested on: Conditional pathogenic enterobacteria gram-negative aerobic bacilli; assay type: cell-based; further: key: + sensitive strains; + moderately sensitive strains; − stable strains
[28] = tested on: Microsporum gypseum; assay: M38-P microdilution MIC/MFC; assay type: cell-based; conditions: Table 16, Dermatophytes
[29] = tested on: Alkaligenes sp. B-689; assay: Sensitivity of strains: suppression of growth; assay type: cell-based; conditions: Compound (1) 1.0%; antibiotics disc method
[30] = tested on: Pseudoallescheria boydii; assay: M38-P microdilution MIC/MFC; assay type: cell-based; conditions: Table 16, Dematiaceous fungi
[31] = tested on: Shigella sonnei B-720; assay: Sensitivity of strains: suppression of growth; assay type: cell-based; conditions: Compound (1) 1.0%; antibiotics disc method
[32] = tested on: Candida albicans; assay: NCCLS broth macro-dilution MIC/MFC (RPMI); assay type: cell-based; conditions: Table 10, 4 day, 30° C.
[33] = tested on: Staphylococcus aureus; assay: Agar plug diffusion, zone of retardation; conditions: plug impregnated at 0.5%
[34] = tested on: Salmonella typhimurium museum strain 727; assay: Impregnated agar serial double dilutions; conditions: meat peptone agar
[35] = tested on: C. krusei RMIT 177; assay: M38-P microdilution MIC/MFC; assay type: cell-based; conditions: 35° C.
[36] = before exposure, MHB, read-out: Standard MIC Initial

## C/C(=C\c1ccc2c(c1)OCO2)[N+](=O)[O-] [Compound (1)]
[1]; Aspergillus fumigatus, 168 h
  MIC: 8 µg/mL (≈ 38.6 µM)
[1]
  MMC: 32 µg/mL
[2]; Concentration in disc 0.1%
  Diameter of zone of Growth inhibition: 32# mm
[2]; Concentration in disc 1.0%
  Diameter of zone of Growth inhibition: 34# mm
[2]; Concentration in disc 2.0%
  Diameter of zone of Growth inhibition: 38# mm
[3]
  Minimal % Compound (1) giving complete inhibition of test culture: 0.5%
[4]
  Suppression of Growth (+/−): +
[5]
  concentration inhibiting low inoculum: 1 µg/mL
[6]; Table 20, […], after 12 weeks continuous exposure, read-out: MIC Final
  MIC: 16 µg/mL (≈ 77.2 µM)
[6]; Table 20, […], parent strain, read-out: MIC Initial
  MIC: 8 µg/mL (≈ 38.6 µM)
[6]; [36]
  MIC: 8 µg/mL (≈ 38.6 µM)
[6]; to Wk 5
  7-Day MIC Range: 8-32 to Wk 5 μg/mL
[7]; Concentration in disc 0.1%
  Diameter of zone of Growth inhibition: 31# mm
[7]; Concentration in disc 1.0%
  Diameter of zone of Growth inhibition: 35# mm
[7]; Concentration in disc 2.0%
  Diameter of zone of Growth inhibition: 40# mm
[8]
  Suppression of Growth (+/−): +
[9]; 128 μg/mL, in 6h
  Log reduction in viable count: 2 in 6h
[9]; 256 μg/mL, in 4h
  Log reduction in viable count: 6 in 4h
[9]; 512 μg/mL, at 2 h
  Log reduction in viable count: 5.5 at 2 h
[9]; within 2 hrs at 512 μg/mL
  reduction (kill): > 99.999%
[9]; within 4 hours at 256 μg/mL
  reduction (kill): > 99.999%
[10]
  Suppression of Growth (+/−): +
[11]
  Cumulative mortality (test): 47
  Incubation period days (test): 0 days
[12]
  clearing of infected wound: cleared the wound completely of pus
[13]
  MMC: 2
[14]
  MMC: 2
[15]; 5% blood
  MIC: 16 µg/mL
  MMC: 256 µg/mL
[15]; 10% plasma
  MIC: 16 µg/mL
  MMC: 256 µg/mL
[15]; Staphylococcus aureus
  MIC: 16 µg/mL
[16]
  Suppression of Growth (+/−): +
[17]; after 12 weeks continuous exposure, read-out: Standard MIC Final
  MIC: 4 µg/mL (≈ 19.3 µM)
[17]; [36]
  MIC: 4 µg/mL (≈ 19.3 µM)
[17]; Range to Week 12, No Rising Trend
  7-Day MIC Range: 16 to 64 µg/mL
[18]
  Suppression of Growth (+/−): +
[19]
  MIC: 6.25 µg/mL (≈ 30.2 µM)
[20]
  Suppression of Growth (+/−): +
[21]; Concentration in disc 0.1%
  Diameter of zone of Growth inhibition: 24# mm
[21]; Concentration in disc 1.0%
  Diameter of zone of Growth inhibition: 30# mm
[21]; Concentration in disc 2.0%
  Diameter of zone of Growth inhibition: 32# mm
[22]
  Average zone of retardation: 5.17
[23]
  MMC: 4 µg/mL
[23]; Trichomonas vaginalis, 24 h
  MIC: 4 µg/mL (≈ 19.3 µM)
[24]
  Minimal % Compound (1) giving complete inhibition of test culture: 0.015%
[25]
  Suppression of Growth (+/−): +
[26]; Streptococcus pneumoniae, ATCC49619
  MIC: 16 µg/mL (≈ 77.2 µM)
[26]
  MMC: 32 µg/mL
[27]
  Suppression of Growth (+/−): +
[28]; Nannizzia gypsea
  MIC: 1 µg/mL (≈ 4.83 µM)
[28]
  MMC: 8 µg/mL
[29]
  Suppression of Growth (+/−): +
[30]
  MMC: 4 µg/mL
[30]; read-out: MIC
  MIC: 2 µg/mL (≈ 9.65 µM)
[31]
  Suppression of Growth (+/−): +
[32]; Candida albicans, 96 h
  MIC: 8 µg/mL (≈ 38.6 µM)
[32]
  MMC: 8 µg/mL
[33]
  Size of zone of retardation of the growth: 6.5
[34]
  Minimal % Compound (1) giving complete inhibition of test culture: 0.5%
[35]; Pichia kudriavzevii, RMIT177, Table 16, 24 h, read-out: MIC
  MIC: 4 µg/mL (≈ 19.3 µM)
[35]; Table 16, 24 h
  MMC: 4 µg/mL
